According to BindingDB's records for doi:10.1016/j.bmcl.2003.08.040 (Toa Eiyo, 2003):

Target: Chymotrypsinogen A (Bos taurus) (UniProt P00766)
Test: In vitro inhibitory activity against bovin chymotrypsin

IC50, > 10 µM:
COC(=O)c1ccc(NS(=O)(=O)c2sc3ccc(Cl)cc3c2C)c(S(C)(=O)=O)c1 [4-(5-Chloro-3-methyl-benzo[b]thiophene-2-sulfonylamino)-3-methanesulfonyl-benzoic acid methyl ester]
COC(=O)c1ccc(NS(=O)(=O)c2sc3ccc(F)cc3c2C)c(S(C)(=O)=O)c1 [4-(5-Fluoro-3-methyl-benzo[b]thiophene-2-sulfonylamino)-3-methanesulfonyl-benzoic acid methyl ester]
CC(=O)c1ccc(NS(=O)(=O)c2sc3ccc(F)cc3c2C)c(S(C)(=O)=O)c1 [5-Fluoro-3-methyl-benzo[b]thiophene-2-sulfonic acid (4-acetyl-2-methanesulfonyl-phenyl)-amide]
